Assay: molar heat capacity at constant pressure; xn = mol fraction of the nth substance listed
Settings: 101 kPa, Liquid, Small sample (50 mg) DSC

BrCCBr [1,2-dibromoethane] + CCCCCCC
molar heat capacity at constant pressure [J/K/mol]
Settings | x1 = 0.1016 | x1 = 0.2016 | x1 = 0.2989 | x1 = 0.3977 | x1 = 0.4996 | x1 = 0.5991 | x1 = 0.6928 | x1 = 0.8022 | x1 = 0.9003 | x1 = 1
293.15 K | 213.58 | 204.39 | 196.15 | 187.73 | 179.31 | 170.59 | 162.47 | 153.18 | 144.9 | 136.87
294.15 K | 213.9 | 204.73 | 196.48 | 188.03 | 179.43 | 170.8 | 162.6 | 153.26 | 144.94 | 136.9
295.15 K | 214.26 | 204.92 | 196.66 | 188.2 | 179.65 | 170.96 | 162.81 | 153.4 | 145.07 | 136.95
296.15 K | 214.59 | 205.3 | 196.95 | 188.51 | 179.89 | 171.13 | 162.9 | 153.53 | 145.16 | 136.99
297.15 K | 214.9 | 205.51 | 197.29 | 188.66 | 180.09 | 171.23 | 163.05 | 153.63 | 145.24 | 137.02
298.15 K | 215.25 | 205.83 | 197.53 | 188.94 | 180.26 | 171.4 | 163.18 | 153.72 | 145.27 | 137.04
299.15 K | 215.55 | 206.18 | 197.72 | 189.11 | 180.39 | 171.55 | 163.24 | 153.84 | 145.33 | 137.09
300.15 K | 215.9 | 206.45 | 198 | 189.43 | 180.66 | 171.77 | 163.47 | 153.91 | 145.4 | 137.11
301.15 K | 216.32 | 206.71 | 198.31 | 189.64 | 180.79 | 171.9 | 163.5 | 153.98 | 145.47 | 137.15
302.15 K | 216.6 | 207.03 | 198.6 | 189.82 | 181.03 | 172.01 | 163.71 | 154.13 | 145.6 | 137.2
303.15 K | 216.95 | 207.33 | 198.77 | 190.01 | 181.17 | 172.23 | 163.89 | 154.24 | 145.65 | 137.25
304.15 K | 217.33 | 207.57 | 199.17 | 190.33 | 181.4 | 172.31 | 163.94 | 154.32 | 145.75 | 137.29
305.15 K | 217.7 | 207.95 | 199.39 | 190.62 | 181.54 | 172.49 | 164.06 | 154.37 | 145.77 | 137.32
306.15 K | 218.07 | 208.28 | 199.58 | 190.75 | 181.72 | 172.71 | 164.29 | 154.55 | 145.83 | 137.39
307.15 K | 218.39 | 208.47 | 199.9 | 191.03 | 181.95 | 172.88 | 164.4 | 154.6 | 145.96 | 137.42
308.15 K | 218.69 | 208.8 | 200.2 | 191.31 | 182.17 | 173 | 164.48 | 154.68 | 146.01 | 137.49
309.15 K | 219.1 | 209.1 | 200.37 | 191.5 | 182.37 | 173.19 | 164.7 | 154.79 | 146.13 | 137.53
310.15 K | 219.41 | 209.5 | 200.65 | 191.66 | 182.48 | 173.29 | 164.8 | 154.9 | 146.2 | 137.6
311.15 K | 219.69 | 209.78 | 200.99 | 191.91 | 182.68 | 173.5 | 164.88 | 155 | 146.21 | 137.65
312.15 K | 220.11 | 210.1 | 201.15 | 192.12 | 182.91 | 173.69 | 165.06 | 155.16 | 146.3 | 137.71
313.15 K | 220.35 | 210.39 | 201.51 | 192.42 | 183.06 | 173.84 | 165.16 | 155.25 | 146.43 | 137.77

— the NIST ThermoML archive (doi:10.1021/je0603325)
